From ChEMBL document CHEMBL1136238, “Synthesis and PDF inhibitory activities of novel benzothiazolylidenehydroxamic acid derivatives” (Bioorg Med Chem Lett, 2003) come the findings set out here.

One assay concerns Pseudomonas aeruginosa. The experiment in a line: In vitro minimum inhibitory concentration required against Pseudomonas aeruginosa ATCC 9027. The format is functional.
In the next assay the test system is Staphylococcus aureus. The experiment in a line: In vitro minimum inhibitory concentration required against Staphylococcus aureus ATCC 10390. The format is functional.
Assay [1] concerns the target Peptide deformylase (Escherichia coli) (UniProt P0A6K3). Kind of assay: In vitro inhibitory concentration required against peptide deformylase (PDF).
A further assay has as its system Escherichia coli. The experiment in a line: In vitro minimum inhibitory concentration required against Escherichia coli ATCC 25922. The format is functional.

≈ marks a conversion by molar mass, not a printed value.

Sequence of Peptide deformylase (Escherichia coli) (P0A6K3 whole entry, looked up): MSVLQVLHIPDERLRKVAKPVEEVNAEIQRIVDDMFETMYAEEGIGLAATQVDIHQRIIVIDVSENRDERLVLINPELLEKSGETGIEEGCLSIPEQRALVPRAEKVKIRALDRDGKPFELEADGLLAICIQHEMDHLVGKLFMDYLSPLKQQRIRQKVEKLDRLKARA

Broadly, the MIC is the least concentration at which growth counts as inhibited. A lower MIC goes with greater potency. For orientation: IC50 means the point on the concentration scale where inhibition reaches its midpoint. Higher therefore signals weaker potency in that assay. With `CCN1/C(=C/C(=O)NO)Sc2ccccc21`, the MIC in the assay with Pseudomonas aeruginosa, against Staphylococcus aureus and with Escherichia coli was more than 100 µg/mL each time. The concentration for half-maximal inhibition (IC50) in assay [1] was more than 100 µM.
Regarding `CCCCN1/C(=C/C(=O)O)Sc2ccccc21`, the MIC in the assay on Pseudomonas aeruginosa, against Staphylococcus aureus and against Escherichia coli was more than 100 µg/mL throughout. Besides, the IC50 in assay [1] is more than 100 µM.
Regarding `CCCCN1/C(=C/C(=O)NO)S(=O)(=O)c2ccccc21`, the MIC against Pseudomonas aeruginosa, in the assay on Staphylococcus aureus and against Escherichia coli was more than 100 µg/mL throughout. In addition, the IC50 in assay [1] was more than 100 µM.
With `CCCCN1/C(=C/C(=O)NO)Sc2ccccc21`, the MIC against Pseudomonas aeruginosa was 100 µg/mL (≈ 378 µM); with Escherichia coli, more than 100 µg/mL.
With `CCCCCN1/C(=C/C(=O)NO)Sc2ccccc21`, the MIC in the assay with Pseudomonas aeruginosa is 100 µg/mL (≈ 359 µM); against Staphylococcus aureus, 100 µg/mL (≈ 359 µM); with Escherichia coli it was more than 100 µg/mL. Besides, inhibition in assay [1] was half-maximal at 9.91 µM (IC50).
On to `CCCN1/C(=C/C(=O)NO)Sc2ccccc21`, for which the MIC in the assay with Pseudomonas aeruginosa was 100 µg/mL (≈ 399 µM); in the assay with Staphylococcus aureus, 10 µg/mL (≈ 39.9 µM); with Escherichia coli it was more than 100 µg/mL. In assay [1], this molecule showed an IC50 of 8.39 µM.
For the molecule `CCCCC[C@H](CC(=O)NO)C(=O)N[C@H](C(=O)N1CCC[C@H]1CO)C(C)C` [ACTINONIN], the results for the minimum inhibitory concentration (MIC) with Pseudomonas aeruginosa, with Staphylococcus aureus and in the assay with Escherichia coli were 100 µg/mL (≈ 259 µM), 3 µg/mL (≈ 7.78 µM) and 50 µg/mL (≈ 130 µM), respectively.
